# In US8835476B2, “Synthesis of novel antimicrobials” (priority 2005, dated 2014):
# Experiments:
# recombinant E. coli LpxA = target: T1, recombinant E. coli LpxA (Escherichia coli, UniProt P0A722); assay: LpxA assay: acyl-UDP-GlcNAc formation from UDP-[3H]GlcNAc, TLC; type: biochemical; conditions: for inhibition at 5000 µM: 5 mM compound, FIG. 8
# T1 construct: 6xHis (C); made in house; host or cells: E. coli BL21 (pET23b)
# Source text: The lpxA gene was amplified from an E. coli genomic library and inserted into a pET23b vector using standard recombinant DNA methodology. The 5′ oligonucleotide for amplification of the LpxA open reading frame was 5′-[…]-3′ (SEQ ID NO. 1) and contains a BamHI restriction enzyme site upstream of the LpxA ATG start codon and the 3′ oligonucleotide was 5′-[…]-3′ (SEQ ID NO. 2) and contains a XhoI restriction enzyme site downstream of the final codon of the LpxA open reading frame. Primers were custom synthesized. The primers were designed such that digestion of the amplification product would result in addition of a C-terminal 6×-His tag in frame with the LpxA open reading frame. Specifically, E. coli genomic DNA was isolated and an amplification reaction was carried out as follows: 33 μl water, 5 μl 10× reaction buffer, 1.5 μl of 50 mM magnesium sulfate, 3 μl of 10 mM dNTPs, 3 μl of a 50 μM solution of the 5′ LpxA primer, 3 μl of a 50 μM solution of the 3′ LpxA primer, 0.5 μl of E. coli genomic DNA solution, and 1 μl of polymerase. The reaction conditions were as follows: 94° C. for 2 minutes; followed by 30 cycles of 94° C. for 30 seconds, 50° C. for 30 seconds, 68° C. for 1.5 minutes, followed by an extension at 68° C. for 7 minutes. The resulting LpxA product was separated from other DNA on a 0.8% agarose gel and isolated from the gel. The LpxA open reading frame was cloned into a topoisomerase I-activated vector and transformed into E. coli. […] The newly synthesized plasmid containing the BamHI- and XhoI-flanked LpxA open reading frame and plasmid pET23a were digested with BamHI and XhoI at 37° C. for 2 hours, DNA was separated by agarose gel electrophoresis, isolated from the gel, and ligated. Ligation reactions were transformed into chemically competent E. coli and plasmid DNA was isolated. Restriction mapping was performed to determine which plasmids contained the LpxA open reading frame. To remove the T7 epitope coding sequence from the 5′end of the LpxA open reading frame, the pET23a plasmid containing the LpxA open reading frame was digested with the restriction enzymes BamHI and XhoI and a pET23b plasmid was digested with BglII and XhoI, DNA was separated by agarose gel electrophoresis, isolated from the gel, and ligated. Ligation reactions were transformed into chemically competent E. coli and plasmid DNA was isolated. Restriction mapping was performed to assess plasmids containing the LpxA open reading frame.
# A 5 ml culture of E. Coli BL21 cells expressing the LpxA-6×His plasmid was grown overnight at 37° C. in LB medium containing 50 μg/ml ampicillin and 34 μg/ml chloramphenicol, then subcultured into 500 ml of the same medium and grown at 37° C. until A600=0.6. LpxA expression was induced by addition of 0.5 mM IPTG for three hours. The cells were centrifuged at 7 000×g for 10 minutes at 4° C. and lysed using a mild, nonionic detergent. The soluble fraction containing LpxA was added to 1 ml of nickel affinity resin in a 15 ml Falcon tube; the resin was washed extensively with extraction/wash buffer (50 mM Na-phosphate (pH 7.0) and 300 mM NaCl) prior to use. This mixture was incubated on a rotating platform at low speed for 20 minutes at room temperature. The resin was centrifuged at 1000 rpm in a bench top centrifuge for 2 min, washed twice (10 min each) with 10 ml of extraction/wash buffer, resuspended in 10 ml of extraction/wash buffer, and transferred to a 10 ml polypropylene disposable protein purification column. The column was eluted with 5 ml of 50 mM Na-phosphate (pH 7.0) containing 300 mM NaCl and 150 mM imidazole, collected in 1 ml fractions. The eluate was analysed by SDS-PAGE and was visualised using a protein stain (FIG. 7 inset).
# Recombinant Vibrio harveyi acyl carrier protein was prepared from a GST fusion protein as described previously (Flaman et al., 2001). […]
# E. coli BL21 cells = assay: Inhibition of E. coli growth in liquid culture (OD 600 nm); type: cell-based; conditions: for growth of E. coli in liquid culture / growth inhibitory activity, E. coli liquid culture: FIG. 11; for growth inhibitory activity, E. coli liquid culture: only at the highest concentration tested (1 mM)
# Description: Compounds to be tested were dissolved in ethanol or DMSO and subsequently diluted into of Luria broth. The final concentration of ethanol (2%, v/v) or DMSO (1%, v/v) had minimal effect on growth rate. Culture tubes were subsequently inoculated with E. coli BL21 or D22 cells to an optical density (at 600 nm) of 0.01 and incubated on a rotary shaker at 37° C. The optical density at 600 nm of 100 μl samples was measured at indicated time points.
# [1] = tested on: LPS synthesis in E. coli strain D22; assay: In vivo LPS synthesis: [3H]galactose incorporation into acid-precipitable material; type: cell-based; conditions: 0.1 mM, FIG. 10B
# Description: LpxA catalyzes the first step in the synthesis of lipid A (the hydrophobic anchor of LPS), which is essential for the growth and pathogenesis of many gram-negative bacteria. The inhibition of LpxA activity would therefore result in decreased synthesis of LPS. To measure the synthesis of LPS in vivo, the incorporation of radiolabelled galactose into acid-precipitable material was determined. The E. coli strain used for these studies was D22 (obtained from the E. coli Genetic Stock Center), which contains a mutation in the LpxC gene (lpxC101; Normark et al., 1969, J Bacteriol 97, 1334). Strains harbouring this mutation have an increased susceptibility to antibiotics, in addition to producing approximately 30% less LPS (Grundstrom et al., 1980, J Bacteriol 144, 884.). Bacteria were grown in Luria broth to early-log phase, at which point, 500 μl was transferred to a culture tube containing 1 μl of [^3H]galactose (final concentration, 0.2 mM, 20 μCi/μmol) and mixed. Cultures were incubated at 30° C. for 75 minutes with shaking at 220 rpm. Incorporation was terminated by adding 400 μl of labelled culture to 44.4 μl of 100% trichloroacetic acid (TCA, 10% final concentration) in a 1.5 ml microcentrifuge tube. Tubes were vortexed, incubated on ice for 30 minutes, then centrifuged at 14 000 rpm for 5 minutes at room temperature. The pellet was rinsed twice with 1 ml of ice-cold 10% TCA, resuspended in 50 μl of formic acid, and transferred to a scintillation vial for counting.
# Compounds to be tested were dissolved in DMSO and added to the bacterial culture prior to labelling with galactose, and LPS synthesis was determined as described previously. The final concentration of DMSO (1%, v/v) had minimal effect on LPS synthesis.
# T1 sequence (P0A722 whole entry): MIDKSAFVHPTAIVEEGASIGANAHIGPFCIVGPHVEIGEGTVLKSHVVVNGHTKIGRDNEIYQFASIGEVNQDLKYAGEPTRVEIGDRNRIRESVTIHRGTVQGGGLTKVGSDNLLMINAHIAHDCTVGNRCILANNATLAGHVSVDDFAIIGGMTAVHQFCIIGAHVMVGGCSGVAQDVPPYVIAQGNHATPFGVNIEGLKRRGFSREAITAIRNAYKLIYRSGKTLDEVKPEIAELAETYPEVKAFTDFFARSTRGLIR
SMILES,inhibition at 5000 µM (recombinant E. coli LpxA),"growth inhibitory activity, E. coli liquid culture (E. coli BL21 cells)",also measured
"O=C(O)c1sc(-c2ccc(F)cc2)cc1-c1nnn[nH]1 [DNM-141, 5-(4-Fluoro-phenyl)-3-(1H-tetrazol-5-yl)-thiophene-2-carboxylic acid]",> 80%,,"growth inhibitory effect, E. coli liquid culture (E. coli BL21 cells; concentrations tested in FIG. 11): no apparent effect"
"Fc1ccc(-c2cc(-c3nnn[nH]3)c(-c3ccc(F)cc3)s2)cc1 [DNM-131, 5-(2,5-Bis(4-fluorophenyl)thiophen-3-yl)-1H-tetrazole]",> 80%,,"decrease of LPS synthesis [1]: approximately 70%; inhibition of LpxA activity (recombinant E. coli LpxA; concentrations above 500 μM, FIG. 9): almost complete inhibition; growth of E. coli in liquid culture (E. coli BL21 cells; 10 μM): partial inhibition; growth of E. coli in liquid culture (E. coli BL21 cells; 0.1 or 1 mM): no growth"
"CCOC(=O)c1cc(-c2nnn[nH]2)c(-c2ccc(F)cc2)s1 [DNM-124, 5-(4-Fluoro-phenyl)-4-(1H-tetrazol-5-yl)-thiophene-2-carboxylic acid ethyl ester]",> 80%,Substantial growth inhibitory activity,
"Cn1nnc(-c2cc(C(=O)O)sc2-c2ccc(F)cc2)n1 [DNM-123, 5-(4-fluorophenyl)-4-(2-methyl-2H-tetrazol-5-yl)thiophene-2-carboxylic acid]",> 80%,Substantial growth inhibitory activity,"inhibition at 500 µM (recombinant E. coli LpxA; 500 μM, FIG. 9): ~60%"
"Cn1nnc(-c2cc(-c3ccc(F)cc3)sc2C(=O)O)n1 [DNM-142, 5-(4-Fluoro-phenyl)-3-(2-methyl-2H-tetrazol-5-yl)-thiophene-2-carboxylic acid]",> 70%,,
